{"source": "patent US20240124450A1", "about": "“Novel SIK Inhibitors” (Pfizer Inc., priority 2022, published 2024)", "key": {"[1]": {"tested_on": "TNFα release from human monocyte derived macrophages stimulated with LPS", "experiment": "SIK macrophage cytokine assay, inhibition of TNFα release", "format": "cell-based", "conditions": "Macrophage, 1 ng/mL LPS, 4 hours, HTRF, read-out: TNFa IC50", "procedure": "(§1) Cytokine Assays: SIK Macrophage Assay Cytokine activity is determined by measuring the effect of a test agent on the inhibitory release of the cytokine TNFα and the increasing release of the cytokine IL10 from human monocyte derived macrophages (human macrophages) stimulated with lipopolysaccharide (LPS). At the time of assay, human macrophages (CGPS group Pfizer Groton, CT) are removed from cryopreservation, thawed quickly at 37° C., diluted in thaw medium (OptiMEM—Gibco medium, 10% heat inactivated fetal bovine serum (HIFBS)), and then centrifuged at 200×g for 10 minutes. […] After ˜60 minutes in an incubator at 37° C. in a humidified environment in 5% carbon dioxide the cells are stimulated by the addition of 5 μL of LPS (10 ng/mL; Sigma) and the assay plate is returned to an incubator at 37° C. in a humidified environment in 5% carbon dioxide for 4 hours. […] The final concentration of DMSO in the assay is approximately 0.1%. After 4 hours, the assay plate is removed from the incubator and centrifuged at 1500 rpm for 10 minutes. A portion of the resulting cell supernatant is then used to determine the amount of IL-10 and TNFα in each well. Cytokine measurements are made using human IL-10 and TNFα HTRF assay kits (Perkin Elmer) following the manufacturer's assay protocol."}, "[2]": {"molecular_target": "SIK3 (Homo sapiens (Human), UniProt Q9Y2K2)", "sequence (Q9Y2K2 whole entry, species assumed)": "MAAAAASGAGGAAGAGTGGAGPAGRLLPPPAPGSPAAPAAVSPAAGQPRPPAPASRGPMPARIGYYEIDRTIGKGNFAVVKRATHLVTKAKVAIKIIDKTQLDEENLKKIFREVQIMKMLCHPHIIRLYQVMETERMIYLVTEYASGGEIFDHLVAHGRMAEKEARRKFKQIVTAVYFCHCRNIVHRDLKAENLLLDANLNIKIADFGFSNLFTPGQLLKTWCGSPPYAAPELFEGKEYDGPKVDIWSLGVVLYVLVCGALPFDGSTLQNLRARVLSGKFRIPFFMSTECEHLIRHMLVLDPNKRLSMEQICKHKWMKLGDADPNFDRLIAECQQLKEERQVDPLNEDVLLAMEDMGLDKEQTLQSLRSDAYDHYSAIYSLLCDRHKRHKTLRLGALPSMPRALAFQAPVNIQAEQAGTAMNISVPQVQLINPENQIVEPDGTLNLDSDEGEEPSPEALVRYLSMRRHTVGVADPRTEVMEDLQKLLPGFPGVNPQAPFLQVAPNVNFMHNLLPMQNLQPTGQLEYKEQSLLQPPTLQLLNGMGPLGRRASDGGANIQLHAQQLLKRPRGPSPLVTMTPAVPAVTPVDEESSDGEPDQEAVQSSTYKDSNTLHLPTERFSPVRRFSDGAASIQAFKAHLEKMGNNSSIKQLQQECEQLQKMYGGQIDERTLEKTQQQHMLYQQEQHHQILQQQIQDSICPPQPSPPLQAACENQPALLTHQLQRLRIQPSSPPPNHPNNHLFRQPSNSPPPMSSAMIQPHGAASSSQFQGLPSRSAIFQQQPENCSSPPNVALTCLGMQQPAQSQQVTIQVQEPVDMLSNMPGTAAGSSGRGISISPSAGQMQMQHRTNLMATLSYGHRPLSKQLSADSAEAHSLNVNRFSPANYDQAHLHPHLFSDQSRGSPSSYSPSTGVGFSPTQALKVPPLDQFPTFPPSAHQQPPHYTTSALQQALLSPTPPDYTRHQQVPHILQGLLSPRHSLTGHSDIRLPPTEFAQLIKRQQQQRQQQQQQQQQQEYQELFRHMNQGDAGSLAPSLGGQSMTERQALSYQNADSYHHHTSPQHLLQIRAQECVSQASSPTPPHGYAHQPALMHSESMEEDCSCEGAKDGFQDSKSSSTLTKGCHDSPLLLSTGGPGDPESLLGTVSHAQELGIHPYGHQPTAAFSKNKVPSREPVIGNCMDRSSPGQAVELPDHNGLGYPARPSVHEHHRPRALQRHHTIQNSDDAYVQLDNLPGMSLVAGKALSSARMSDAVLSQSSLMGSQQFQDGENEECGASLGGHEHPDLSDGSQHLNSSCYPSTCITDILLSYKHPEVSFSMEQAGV", "experiment": "Pan SIK MS IC50 enzyme assay (SIK3)", "format": "biochemical", "conditions": "1 mM ATP, substrate peptide AQT0508, LCMS/MS detection", "procedure": "(§2) Enzyme Assay: Pan SIK MS IC50 Assay\n(§3) Salt Induced Kinase (SIK) activity is determined by measuring the effect of a test agent on the activity of the appropriate SIK enzyme to phosphorylate its corresponding substrate. […] The phosphorylated substrate product resulting from the kinase reaction is detected by LCMS/MS, and the area under the peak curve correlates with kinase activity. […] The plates are spun at 1000 rpm for 30 seconds to ensure compounds are at the bottom of the well before removing foil covers. 0.15 μL HPE (assay std) and ZPE (DMSO) are added to the ARP using an HP D300 dispenser. Plates are spun again at 1000 rpm for 30 seconds. […] Plates are spun at 1000 rpm for 30 seconds. Plates are then sealed and incubated at RT for 10 minutes. Following incubation, 5 μL of 5× peptide reagent is added with a Multidrop Combi and designated small volume cassette to initiate the kinase reaction. Plates are spun at 1000 rpm for 30 seconds. Plates are then sealed and incubated at RT for 90 minutes. The assay is stopped by the addition of 5 μl of 120 mM EDTA added with a Multidrop Combi and designated small volume cassette (20 mM final concentration). Plates are spun at 1000 rpm for 30 seconds. 10 μl of the final reaction mix from each of the three individual enzyme plates are transferred by a Platemate Plus to the same corresponding 96 well deepwell plate containing 70 μl Water/Methanol (85/15%) for multiplex MS detection ([…]). Using Activity Base (ABase), an idbs data analysis software tool, the reported area ratio unit data is associated to compound, batch and dose information, the data is evaluated for quality, and the percent inhibition of each well is calculated. The data from each Max effect/HPE and Min effect/ZPE control wells are assessed, and outliers are excluded from all further calculations. The mean and standard deviation of the HPE and ZPE are then calculated for each plate, along with the Z Prime. The compound data is converted into % effect, using the average ZPE and HPE controls as 0% and 100% activity, respectively."}, "[3]": {"tested_on": "IL10 release from human monocyte derived macrophages stimulated with LPS", "experiment": "SIK macrophage cytokine assay, increase of IL10 release", "format": "cell-based", "conditions": "Macrophage, 1 ng/mL LPS, 4 hours, HTRF", "procedure": "as §1"}, "[4]": {"molecular_target": "SIK2 (Homo sapiens (Human), UniProt Q9H0K1)", "sequence (Q9H0K1 whole entry, species assumed)": "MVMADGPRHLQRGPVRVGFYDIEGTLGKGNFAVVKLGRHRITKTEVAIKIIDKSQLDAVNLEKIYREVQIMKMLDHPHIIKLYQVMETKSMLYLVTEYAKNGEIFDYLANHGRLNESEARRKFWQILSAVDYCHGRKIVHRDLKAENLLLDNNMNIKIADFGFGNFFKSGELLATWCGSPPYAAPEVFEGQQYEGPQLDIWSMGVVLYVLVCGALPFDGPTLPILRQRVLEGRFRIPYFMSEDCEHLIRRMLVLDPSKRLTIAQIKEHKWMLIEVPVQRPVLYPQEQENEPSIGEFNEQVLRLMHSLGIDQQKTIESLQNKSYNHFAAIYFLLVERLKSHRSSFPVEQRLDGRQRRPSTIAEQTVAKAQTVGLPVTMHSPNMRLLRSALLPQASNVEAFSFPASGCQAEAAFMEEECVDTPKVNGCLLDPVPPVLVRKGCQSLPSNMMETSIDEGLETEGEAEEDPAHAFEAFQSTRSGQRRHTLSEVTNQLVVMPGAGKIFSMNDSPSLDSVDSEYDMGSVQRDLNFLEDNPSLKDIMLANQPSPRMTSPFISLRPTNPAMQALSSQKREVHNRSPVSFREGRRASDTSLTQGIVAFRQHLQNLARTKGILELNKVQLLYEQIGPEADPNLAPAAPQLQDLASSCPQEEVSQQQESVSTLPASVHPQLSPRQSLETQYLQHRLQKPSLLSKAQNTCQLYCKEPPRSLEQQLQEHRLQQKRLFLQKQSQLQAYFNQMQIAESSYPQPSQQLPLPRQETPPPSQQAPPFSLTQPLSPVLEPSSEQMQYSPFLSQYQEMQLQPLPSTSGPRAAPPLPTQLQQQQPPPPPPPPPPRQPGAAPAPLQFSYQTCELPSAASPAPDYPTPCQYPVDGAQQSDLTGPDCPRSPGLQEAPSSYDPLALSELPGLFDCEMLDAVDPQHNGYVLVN", "experiment": "Pan SIK MS IC50 enzyme assay (SIK2)", "format": "biochemical", "conditions": "1 mM ATP, substrate peptide AQT0252, LCMS/MS detection", "procedure": "as §2, §3"}, "[5]": {"molecular_target": "SIK1 (Homo sapiens (Human), UniProt P57059)", "sequence (P57059 whole entry, species assumed)": "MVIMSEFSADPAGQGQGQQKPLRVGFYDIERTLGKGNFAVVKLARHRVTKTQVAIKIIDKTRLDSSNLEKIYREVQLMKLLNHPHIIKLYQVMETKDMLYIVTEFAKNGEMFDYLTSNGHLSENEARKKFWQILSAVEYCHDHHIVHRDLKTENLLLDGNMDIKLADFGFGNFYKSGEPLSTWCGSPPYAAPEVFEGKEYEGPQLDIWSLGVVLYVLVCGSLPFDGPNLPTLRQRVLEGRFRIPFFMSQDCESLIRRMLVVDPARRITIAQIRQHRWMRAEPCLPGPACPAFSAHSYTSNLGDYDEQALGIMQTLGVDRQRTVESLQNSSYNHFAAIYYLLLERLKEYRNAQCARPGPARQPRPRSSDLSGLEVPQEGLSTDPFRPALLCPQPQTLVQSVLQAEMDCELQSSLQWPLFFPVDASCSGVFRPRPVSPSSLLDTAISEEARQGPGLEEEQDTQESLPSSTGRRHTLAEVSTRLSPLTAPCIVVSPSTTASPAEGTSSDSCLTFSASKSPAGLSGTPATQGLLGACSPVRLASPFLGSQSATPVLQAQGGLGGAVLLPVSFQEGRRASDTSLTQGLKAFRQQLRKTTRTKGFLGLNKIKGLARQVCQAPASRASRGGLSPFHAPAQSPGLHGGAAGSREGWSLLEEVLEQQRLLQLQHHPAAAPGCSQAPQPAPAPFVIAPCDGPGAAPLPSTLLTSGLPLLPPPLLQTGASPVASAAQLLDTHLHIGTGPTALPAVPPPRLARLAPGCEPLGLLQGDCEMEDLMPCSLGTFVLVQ", "experiment": "Pan SIK MS IC50 enzyme assay (SIK1)", "format": "biochemical", "conditions": "1 mM ATP, substrate peptide AQT0868, LCMS/MS detection", "procedure": "as §2, §3"}}, "data": [{"smiles": "CC[C@H]1CCC[C@@](N)(COc2cc(-c3cnc4cccc(C#N)n34)cc(SC)c2C#N)C1", "note": "(racemic) [Example 18, 3-(3-(((1S,3S)-1-Amino-3-ethylcyclohexyl)methoxy)-4-cyano-5-(methylthio)phenyl)imidazo[1,2-a]pyridine-5-carbonitrile and 3-(3-(((1R,3R)-1-amino-3-ethylcyclohexyl)methoxy)-4-cyano-5-(methylthio)phenyl)imidazo[1,2-a]pyridine-5-carbonitrile]", "values": [{"measurement": "IC50", "setting": "[1]", "value": 1.1, "unit": "nM"}, {"measurement": "IC50", "setting": "[2]", "value": 1, "unit": "nM"}, {"measurement": "EC50", "setting": "[3]", "value": 5, "unit": "nM"}, {"measurement": "IC50", "setting": "[4]", "value": 0.6, "unit": "nM"}, {"measurement": "IC50", "setting": "[5]", "value": 0.1, "unit": "nM"}]}, {"smiles": "CSc1cc(-c2cnc3ccc(N)c(C#N)n23)cc(OCC2(N)CCCC2)c1C#N", "note": "[Example 45, 6-Amino-3-(3-((1-aminocyclopentyl)methoxy)-4-cyano-5-(methylthio)phenyl)imidazo[1,2-a]pyridine-5-carbonitrile]", "values": [{"measurement": "IC50", "setting": "[1]", "value": 0.6, "unit": "nM"}, {"measurement": "IC50", "setting": "[2]", "value": 0.4, "unit": "nM"}, {"measurement": "EC50", "setting": "[3]", "value": 3, "unit": "nM"}, {"measurement": "IC50", "setting": "[4]", "value": 0.2, "unit": "nM"}, {"measurement": "IC50", "setting": "[5]", "value": 0.1, "unit": "nM"}]}, {"smiles": "CC[C@H]1CCC[C@]1(N)COc1cc(-c2cnc3cccc(OC)n23)cc(OC)c1C#N", "note": "[Example 2B, 2-(((1R,2S)-1-Amino-2-ethylcyclopentyl)methoxy)-6-methoxy-4-(5-methoxyimidazo[1,2-a]pyridin-3-yl)benzonitrile]", "values": [{"measurement": "IC50", "setting": "[1]", "value": 271, "unit": "nM"}, {"measurement": "IC50", "setting": "[2]", "value": 71.3, "unit": "nM"}, {"measurement": "EC50", "setting": "[3]", "value": 570, "unit": "nM"}, {"measurement": "IC50", "setting": "[4]", "value": 11.1, "unit": "nM"}, {"measurement": "IC50", "setting": "[5]", "value": 12, "unit": "nM"}]}, {"smiles": "CSc1cc(-c2cnc3ccccn23)cc(OC[C@]2(N)CCSC2)c1C#N", "note": "(mixture of isomers) [Example 22, (R)-2-((3-Aminotetrahydrothiophen-3-yl)methoxy)-4-(imidazo[1,2-a]pyridin-3-yl)-6-(methylthio)benzonitrile and (S)-2-((3-Aminotetrahydrothiophen-3-yl)methoxy)-4-(imidazo[1,2-a]pyridin-3-yl)-6-(methylthio)benzonitrile]", "values": [{"measurement": "IC50", "setting": "[1]", "value": 32.4, "unit": "nM"}, {"measurement": "IC50", "setting": "[2]", "value": 5.9, "unit": "nM"}, {"measurement": "EC50", "setting": "[3]", "value": 357, "unit": "nM"}, {"measurement": "IC50", "setting": "[4]", "value": 1.3, "unit": "nM"}, {"measurement": "IC50", "setting": "[5]", "value": 1.6, "unit": "nM"}]}]}
